These results are taken from patent US11447460B2, “Compounds and compositions for treating conditions associated with NLRP activity” (Novartis AG, priority 2016, dated 2022).

In this assay the test system is IL-1β production in PMA-differentiated THP-1 cells. Kind of assay: IL-1β production in PMA-differentiated THP-1 cells stimulated with gramicidin (hTHP-1 assay, 2% bovine serum; Bioassays 1 and 2). It is filed as cell-based, human. As to conditions: Homo sapiens, THP-1; hTHP-1 assay containing 2% bovine serum; Table 12, by Example #; read-out: Average IC50 of compounds in hTHP-1 assay. As to the method:
IL-1β Production in PMA-Differentiated THP-1 Cells Stimulated with Gramicidin.
Cell culture-THP-1 cells were purchased from the American Type Culture Collection and sub-cultured according to instructions from the supplier. Prior to experiments, cells were cultured in RPMI 1640 containing 10% heat inactivated FBS, penicillin (100 units/ml) and streptomycin (100 μg/ml), and maintained in log phase prior to experimental setup. Prior to the experiment THP-1 were treated with PMA (Phorbol 12-myristate 13-acetate) (10 μg/ml) for 24 hours. The day of the experiment the media was removed and attaching cells were treated with trypsin for 2 minutes, cells were then collected, washed with PBS (phosphate buffer saline), spin down, resuspended in 2% heat inactivated FBS with RPMI at a concentration of 1×10^6 cells/ml, and 100 ul was plated in a 96 well plate. Cells were incubated with compounds for 1 hours and then stimulated with Gramicidin (5 μM) (Enzo) for 2 hours. Cell free supernatant was collected and the production of IL-1β was evaluated by ELISA. Compounds were dissolved in dimethyl sulfoxide (DMSO) and added to the culture medium to achieve desired concentration (e.g. 100, 30, 10, 3, 1, 0.3 or 0.1 μM). A vehicle only control was run concurrently with each experiment. Final DMSO concentration was 1%.
THP-1 cells were purchased from the American Type Culture Collection and sub-cultured according to instructions from the supplier. Prior to experiments, cells were cultured in complete RPMI 1640 (containing 10% heat inactivated FBS, penicillin (100 units/ml) and streptomycin (100 μg/ml)), and maintained in log phase prior to experimental setup. Prior to the experiment THP-1 were treated with PMA (Phorbol 12-myristate 13-acetate) (20 ng/ml) for 16-18 hours. On the day of the experiment the media was removed and adherent cells were detached with trypsin for 5 minutes. Cells were then harvested, washed with complete RPMI 1640, spun down, resuspended in RPMI 1640 (containing 2% heat inactivated FBS, penicillin (100 units/ml) and streptomycin (100 μg/ml). The cells were plated in a 384-well plate at a density of 50,000 cells/well (final assay volume 50 μl). Compounds were dissolved in dimethyl sulfoxide (DMSO) and added to the culture medium to achieve desired concentration (e.g. 100, 33, 11, 3.7, 1.2, 0.41, 0.14, 0.046, 0.015, 0.0051, 0.0017 μM). Cells were incubated with compounds for 1 hour and then stimulated with gramicidin (5 μM) (Enzo) for 2 hours. Cell free supernatant was collected and the production of IL-10 was evaluated by HTRF (cisbio). A vehicle only control was run concurrently with each experiment. Final DMSO concentration was 0.38%.
Compounds tested with protocols 1 and 2 provided IC50 values that are within the variability of the assay.
Tables 12 and 13 show the biological activity of compounds in hTHP-1 assay containing 2% bovine serum: <1 μM=“++++”; ≥1 and <5 μM=“+++”; ≥5 and <15 μM=“++”; ≥15 and <60 μM=“+”.

`CC(C)(O)c1cnc(S(=O)(=O)NC(=O)Cc2c3c(cc4c2CCC4)CCC3)s1` [Example 3, 2-(1,2,3,5,6,7-Hexahydros-indacen-4-yl)-N-(5-(2-hydroxypropan-2-yl)thiazol-2-ylsulfonyl)acetamide]: the IC50 (commonly the concentration that gives 50% inhibition) lay within 15 to 60 µM.

As to `Cc1cc(C(C)(C)O)cc(S(=O)(=O)NC(=O)Cc2c(C(C)C)cc(F)cc2C(C)C)c1` [Example 46, 2-(4-fluoro-2,6-diisopropylphenyl)-N-(3-(2-hydroxypropan-2-yl)-5-methylphenylsulfonyl)acetamide], the IC50 fell in the range of 1 to 5 µM.

Consider `CC(C)c1cc(OC(F)(F)F)cc(C(C)C)c1CC(=O)NS(=O)(=O)c1ncc(C(C)(C)O)s1` [Example 85, 2-(2,6-diisopropyl-4-(trifluoromethoxy)phenyl)-N-(5-(2-hydroxypropan-2-yl)thiazol-2-ylsulfonyl)acetamide], for which the IC50 was in the range of 1 to 5 µM.

In the case of `CC(C)c1cc(C#N)cc(C(C)C)c1CC(=O)NS(=O)(=O)c1cc(-c2ccccc2)cc(C(C)(C)O)c1` [Example 33, 2-(4-cyano-2,6-diisopropylphenyl)-N-(5-(2-hydroxypropan-2-yl)biphenyl-3-ylsulfonyl)acetamide], the IC50 lay in the range of 5 to 15 µM.

Consider `CC(C)c1cccc(C(C)C)c1CC(=O)NS(=O)(=O)c1cc(C(C)(C)O)n(C)n1` [Example 66, 2-(2,6-diisopropylphenyl)-N-(5-(2-hydroxypropan-2-yl)-1-methyl-1H-pyrazol-3-ylsulfonyl)acetamide], for which the IC50 was in the range of 15 to 60 µM.

`COC(C)(C)c1cnc(S(=O)(=O)NC(=O)Cc2c(C(C)C)cc(C#N)cc2C(C)C)s1` [Example 74, 2-(4-cyano-2,6-diisopropylphenyl)-N-(5-(2-methoxypropan-2-yl)thiazol-2-ylsulfonyl)acetamide]: the half-inhibitory concentration (IC50) was 5 to 15 µM.

As for `CC(C)c1cc(F)cc(C(C)C)c1CC(=O)NS(=O)(=O)c1ccc(C(C)(C)O)cc1` [Example 34, 2-(4-fluoro-2,6-diisopropylphenyl)-N-(4-(2-hydroxypropan-2-yl)phenylsulfonyl)acetamide], the IC50 was in the range of 1 to 5 µM.

In the case of `CC(C)c1cc(F)cc(C(C)C)c1CC(=O)NS(=O)(=O)c1cccc(C(C)(C)O)c1` [Example 25, 2-(4-fluoro-2,6-diisopropylphenyl)-N-(3-(2-hydroxypropan-2-yl)phenylsulfonyl)acetamide], the IC50 was 1 to 5 µM.

On to `CC(C)c1cccc(C(C)C)c1CC(=O)NS(=O)(=O)c1cc(-c2ccncc2)cc(C(C)(C)O)c1` [Example 22, 2-(2,6-diisopropylphenyl)-N-(3-(2-hydroxypropan-2-yl)-5-(pyridin-4-yl)phenylsulfonyl)acetamide], for which the IC50 lay in the range of 15 to 60 µM.

With `CC(C)c1cc(F)cc(C(C)C)c1CC(=O)NS(=O)(=O)c1ccc(S(C)(=O)=O)cc1` [Example 58, 2-(4-fluoro-2,6-diisopropylphenyl)-N-(4-(methylsulfonyl)phenylsulfonyl)acetamide], the IC50 was in the range of 1 to 5 µM.

As for `CC(C)c1cccc(C(C)C)c1CC(=O)NS(=O)(=O)c1cc(-c2ccccc2)cc(C(C)(C)O)c1` [Example 23, 2-(2,6-diisopropylphenyl)-N-(5-(2-hydroxypropan-2-yl)biphenyl-3-ylsulfonyl)acetamide], the IC50 was in the range of 1 to 5 µM.

As for `Cc1c(C(C)(C)O)csc1S(=O)(=O)NC(=O)Cc1c(C(C)C)cc(F)cc1C(C)C` [Example 19, 2-(4-fluoro-2,6-diisopropylphenyl)-N-(4-(2-hydroxypropan-2-yl)-3-methylthiophen-2-ylsulfonyl)acetamide], the IC50 was 1 to 5 µM.

As for `CC(C)c1cccc(C(C)C)c1CC(=O)NS(=O)(=O)c1ccc(C(C)(C)O)cc1` [Example 21, 2-(2,6-diisopropylphenyl)-N-(4-(2-hydroxypropan-2-yl)phenylsulfonyl)acetamide], the IC50 fell in the range of 1 to 5 µM.

Regarding `CC(C)c1cc(C#N)cc(C(C)C)c1CC(=O)NS(=O)(=O)c1ncc(C(C)O)s1` (stereo not shown) [Example 93, 2-(4-cyano-2,6-diisopropylphenyl)-N-(5-(1-hydroxyethyl)thiazol-2-ylsulfonyl)acetamide], the IC50 lay within 1 to 5 µM.

Regarding `CC(C)c1cc(C(F)(F)F)cc(C(C)C)c1CC(=O)NS(=O)(=O)c1ncc(C(C)(C)O)s1` [Example 72, 2-(2,6-diisopropyl-4-(trifluoromethyl)phenyl)-N-(5-(2-hydroxypropan-2-yl)thiazol-2-ylsulfonyl)acetamide], the IC50 was in the range of 1 to 5 µM.

For the compound `CC1(c2ccc(F)c(S(=O)(=O)NC(=O)Cc3c4c(c(F)c5c3CCC5)CCC4)c2)OCCO1` [Example 57, 2-(8-fluoro-1,2,3,5,6,7-hexahydros-indacen-4-yl)-N-(2-fluoro-5-(2-methyl-1,3-dioxolan-2-yl)phenylsulfonyl)acetamide], the IC50 was in the range of 15 to 60 µM.

On to `CC(C)c1cc(F)cc(C(C)C)c1CC(=O)NS(=O)(=O)c1cc(C(C)(C)O)n(C)n1` [Example 67, 2-(4-fluoro-2,6-diisopropylphenyl)-N-(5-(2-hydroxypropan-2-yl)-1-methyl-1H-pyrazol-3-ylsulfonyl)acetamide], for which the IC50 lay in the range of 1 to 5 µM.

As for `CC(C)c1cc(F)cc(C(C)C)c1CC(=O)NS(=O)(=O)c1cc(N2CCOCC2)cc(C(C)(C)O)c1` [Example 38, 2-(4-fluoro-2,6-diisopropylphenyl)-N-(3-(2-hydroxypropan-2-yl)-5-morpholinophenylsulfonyl)acetamide], the IC50 lay in the range of 5 to 15 µM.

As to `CC(C)(O)c1cnc(S(=O)(=O)NC(=O)Cc2c3c(c(F)c4c2CCC4)CCC3)s1` [Example 69, 2-(8-fluoro-1,2,3,5,6,7-hexahydros-indacen-4-yl)-N-(5-(2-hydroxypropan-2-yl)thiazol-2-ylsulfonyl)acetamide], the IC50 was 15 to 60 µM.

Take `CC(C)c1cc(F)cc(C(C)C)c1CC(=O)NS(=O)(=O)c1cccc(C(C)(C)O)c1F` [Example 50, 2-(4-fluoro-2,6-diisopropylphenyl)-N-(2-fluoro-3-(2-hydroxypropan-2-yl)phenylsulfonyl)acetamide]: the IC50 was in the range of 1 to 5 µM.

For `CC(C)c1cc(C#N)cc(C(C)C)c1CC(=O)NS(=O)(=O)c1cc(C(C)(C)O)cs1` [Example 10, 2-(4-cyano-2,6-diisopropylphenyl)-N-(4-(2-hydroxypropan-2-yl)thiophen-2-ylsulfonyl)acetamide], the IC50 is less than 1 µM.

As for `CC(C)(O)c1coc(S(=O)(=O)NC(=O)Cc2c3c(cc4c2CCC4)CCC3)c1` [Example 1, 2-(1,2,3,5,6,7-Hexahydros-indacen-4-yl)-N-(4-(2-hydroxypropan-2-yl)furan-2-ylsulfonyl)acetamide], the IC50 was 5 to 15 µM.

On to `CC(C)c1cc(F)cc(C(C)C)c1CC(=O)NS(=O)(=O)c1cc(C(C)(C)O)cc(C(C)(C)O)c1` [Example 30, N-(3,5-bis(2-hydroxypropan-2-yl)phenylsulfonyl)-2-(4-fluoro-2,6-diisopropylphenyl)acetamide], for which the IC50 is 5 to 15 µM.

Regarding `CC(C)c1cccc(C(C)C)c1CC(=O)NS(=O)(=O)c1ncc(C(C)(C)O)s1` [Example 2, 2-(2,6-Diisopropylphenyl)-N-(5-(2-hydroxypropan-2-yl)thiazol-2-ylsulfonyl)acetamide], the IC50 was 1 to 5 µM.

Take `CC(C)c1cc(F)cc(C(C)C)c1CC(=O)NS(=O)(=O)c1ncc(C(C)CO)s1` (stereo not shown) [Example 96, 2-(4-Fluoro-2,6-diisopropylphenyl)-N-(5-(1-hydroxypropan-2-yl)thiazol-2-ylsulfonyl)acetamide]: the IC50 lay in the range of 5 to 15 µM.

Consider `CC(C)(O)c1cnc(S(=O)(=O)NC(=O)Cc2cc(C(F)(F)F)ccc2Cl)s1` [Example 87, 2-(2-chloro-5-(trifluoromethyl)phenyl)-N-(5-(2-hydroxypropan-2-yl)thiazol-2-ylsulfonyl)acetamide], for which the IC50 lay within 15 to 60 µM.

As for `CC(C)c1c(F)c(Cl)c(F)c(C(C)C)c1CC(=O)NS(=O)(=O)c1cc(C(C)(C)O)co1` [Example 20, 2-(4-chloro-3,5-difluoro-2,6-diisopropylphenyl)-N-(4-(2-hydroxypropan-2-yl)furan-2-ylsulfonyl)acetamide], the IC50 was less than 1 µM.

With `CC(C)c1cc(C#N)cc(C(C)C)c1CC(=O)NS(=O)(=O)c1ccc(C(C)(C)O)c(CO)c1` [Example 95, 2-(4-cyano-2,6-diisopropylphenyl)-N-(3-(hydroxymethyl)-4-(2-hydroxypropan-2-yl)phenylsulfonyl)acetamide], the IC50 was in the range of 1 to 5 µM.
